Results on 14 compounds are retold here after US8697687B2, “Treating diseases mediated by blockade of the epithelial sodium channel with pyrazine-2-carboxamide derivatives” (Novartis AG, priority 2007, dated 2014).

This assay deals with T1, epithelial sodium channel (ENaC) (Homo sapiens, UniProt P37088+P51168+P51170).
T1 construct: host or cells: primary Human Bronchial Epithelial cells (HBECs), air-liquid interface culture
T1 sequence (P37088 1-669): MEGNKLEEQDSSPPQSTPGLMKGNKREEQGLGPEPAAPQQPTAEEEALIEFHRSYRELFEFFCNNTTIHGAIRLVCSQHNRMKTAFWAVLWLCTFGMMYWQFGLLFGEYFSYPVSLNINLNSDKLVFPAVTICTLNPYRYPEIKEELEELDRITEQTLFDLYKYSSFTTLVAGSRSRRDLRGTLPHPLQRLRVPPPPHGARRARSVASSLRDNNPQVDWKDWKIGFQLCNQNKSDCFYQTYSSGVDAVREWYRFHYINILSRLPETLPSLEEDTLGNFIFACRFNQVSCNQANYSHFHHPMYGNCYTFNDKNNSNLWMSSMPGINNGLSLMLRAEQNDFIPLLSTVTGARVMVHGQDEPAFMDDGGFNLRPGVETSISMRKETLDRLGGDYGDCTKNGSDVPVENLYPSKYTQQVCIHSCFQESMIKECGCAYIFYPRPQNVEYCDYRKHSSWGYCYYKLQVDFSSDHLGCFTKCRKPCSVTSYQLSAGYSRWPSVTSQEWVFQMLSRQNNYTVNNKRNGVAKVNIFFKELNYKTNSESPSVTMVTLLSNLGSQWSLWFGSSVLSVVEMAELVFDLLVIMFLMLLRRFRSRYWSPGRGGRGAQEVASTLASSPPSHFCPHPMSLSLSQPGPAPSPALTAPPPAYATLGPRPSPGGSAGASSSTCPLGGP
T1 sequence (P51168 1-640): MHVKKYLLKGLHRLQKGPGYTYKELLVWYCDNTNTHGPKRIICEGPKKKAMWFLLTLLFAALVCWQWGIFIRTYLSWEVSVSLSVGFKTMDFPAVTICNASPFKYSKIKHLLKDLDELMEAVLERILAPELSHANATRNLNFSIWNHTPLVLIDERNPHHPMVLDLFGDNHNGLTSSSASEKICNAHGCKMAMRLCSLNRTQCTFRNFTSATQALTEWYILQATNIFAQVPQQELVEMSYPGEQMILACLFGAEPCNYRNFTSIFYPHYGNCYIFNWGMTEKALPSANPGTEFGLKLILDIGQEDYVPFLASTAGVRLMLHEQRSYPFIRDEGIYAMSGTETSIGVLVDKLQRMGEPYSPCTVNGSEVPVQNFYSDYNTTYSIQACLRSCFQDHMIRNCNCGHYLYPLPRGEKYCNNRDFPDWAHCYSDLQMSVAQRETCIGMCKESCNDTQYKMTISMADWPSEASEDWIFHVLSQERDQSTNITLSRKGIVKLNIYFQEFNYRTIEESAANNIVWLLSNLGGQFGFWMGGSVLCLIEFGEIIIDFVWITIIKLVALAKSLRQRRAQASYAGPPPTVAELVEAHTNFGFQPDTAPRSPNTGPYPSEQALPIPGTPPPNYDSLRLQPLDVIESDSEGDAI
T1 sequence (P51170 1-649): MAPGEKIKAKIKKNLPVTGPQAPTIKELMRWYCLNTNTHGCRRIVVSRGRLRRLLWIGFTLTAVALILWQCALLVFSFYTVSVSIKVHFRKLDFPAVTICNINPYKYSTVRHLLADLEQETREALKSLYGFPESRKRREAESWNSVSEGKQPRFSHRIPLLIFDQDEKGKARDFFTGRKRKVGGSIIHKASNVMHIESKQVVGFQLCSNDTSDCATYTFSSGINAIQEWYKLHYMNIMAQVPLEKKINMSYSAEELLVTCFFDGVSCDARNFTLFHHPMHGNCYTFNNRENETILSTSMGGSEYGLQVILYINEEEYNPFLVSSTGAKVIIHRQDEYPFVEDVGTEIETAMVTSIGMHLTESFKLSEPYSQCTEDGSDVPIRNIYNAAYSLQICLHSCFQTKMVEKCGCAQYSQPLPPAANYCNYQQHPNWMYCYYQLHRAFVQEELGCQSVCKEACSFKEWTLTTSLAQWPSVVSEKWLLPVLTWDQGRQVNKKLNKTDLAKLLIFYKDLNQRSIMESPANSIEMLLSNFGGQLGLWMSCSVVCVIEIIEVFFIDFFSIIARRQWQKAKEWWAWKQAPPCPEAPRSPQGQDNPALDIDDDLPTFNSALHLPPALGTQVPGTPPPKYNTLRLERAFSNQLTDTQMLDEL
Nature of the assay: Short circuit current (ISC) measurements in Human Bronchial Epithelial cells, inhibition of amiloride-sensitive ISC. In kind it is cell-based. As to conditions: inhibition of the amiloride-sensitive ISC; Human Bronchial Epithelial cells (HBECs) at air-liquid interface; compound added to apical chamber; read-out: IC50. The procedure:
Compounds of formula (I) and their pharmaceutically acceptable salts, hereinafter referred to alternatively as “agents of the invention”, are useful as pharmaceuticals. In particular, the compounds have good ENaC blocker activity and may be tested in the following assays.
Human Bronchial Epithelial cells (HBECs) (Cambrex) were cultured under air-liquid interface conditions to provide a well differentiated mucociliary phenotype.
HBECs were cultured using a modification of the method described by Gray and colleagues (Gray et al., 1996). Cells were seeded in plastic T-162 flasks and were grown in bronchial epithelial cell growth medium (BEGM; Cambrex) supplemented with bovine pituitary extract (52 μg/mL), hydrocortisone (0.5 μg/mL), human recombinant epidermal growth factor (0.5 ng/mL), epinephrine (0.5 μg/mL), transferrin (10 μg/mL), insulin (5 μg/mL), retinoic acid (0.1 μg/mL), triiodothyronine ([…]), gentamycin (50 μg/mL) and amphotericin B (50 ng/mL). Medium was changed every 48 hours until cells were 90% confluent. Cells were then passaged and seeded (8.25×10^5 cells/insert) on polycarbonate Snapwell inserts (Costar) in differentiation media containing 50% DMEM in BEGM with the same supplements as above but without triiodothyronine and a final retinoic acid concentration of 50 nM (all-trans retinoic acid). Cells were maintained submerged for the first 7 days in culture, after which time they were exposed to an apical air interface for the remainder of the culture period. At this time, media was changed to DMEM:F12 media containing 2% v/v Ultroser G for the remainder of culture. Amphotericin B was removed from all media 3 feeds prior to use in the Using Chambers. Cells were used between days 7 and 21 after establishment of the apical-air interface. At all stages of culture, cells were maintained at 37° C. in 5% CO2 in an air incubator.
Short Circuit Current (ISC) Measurements
Snapwell inserts were mounted in Vertical Diffusion Chambers (Costar) and were bathed with continuously gassed Ringer solution (5% CO2 in O2; pH 7.4) maintained at 37° C. containing (in mM): 120 NaCl, 25 NaHCO3, 3.3 KH2PO4, 0.8 K2HPO4, 1.2 CaCl2, 1.2 MgCl2, and 10 glucose. The solution osmolarity was between 280 and 300 mOsmol/kg H2O for all physiological salt solutions used. Cells were voltage clamped to 0 mV (model EVC4000; WPI). RT was measured by applying a 1- or 2-mV pulse at 30-s intervals and calculating RT by Ohm's law. Data were recorded using a PowerLab workstation (ADInstruments).
Test compounds were prepared as a 10 mM stock solution in DMSO (95%). Serial 3-fold dilutions were freshly prepared in an appropriate vehicle (distilled H2O or Ringers solution). The initial concentration was added to the apical chamber as a 1000× concentrate in 5 μL, resulting in a final 1× concentration the 5 mL volume of the Ussing chamber. Subsequent additions of compound were added in a 3.3 μL volume of the 1000× serially diluted stock solution. At the completion of the concentration-response experiment, amiloride (10 μM) was added into the apical chamber to enable the total amiloride-sensitive current to be measured. An amiloride control IC50 was established at the start of each experiment.
Results are expressed as the mean % inhibition of the amiloride-sensitive ISC. Concentration-response curves were plotted and IC50 values generated using GraphPad Prism 3.02. Cell inserts were typically run in duplicate and the IC50 calculated on the mean % inhibition data.
As for `CC(C)(CCOCc1ccccc1)C[C@H]1CN/C(=N/C(=O)c2nc(Cl)c(N)nc2N)N1` [Example 26], the IC50 is 11 nM. As to `Nc1nc(N)c(C(=O)/N=C2\NCC3(CCN(C(=O)CCc4ccc(OCc5ccncc5)cc4)CC3)N2)nc1Cl` [Example 70, 3,5-Diamino-6-chloro-pyrazine-2-carboxylic acid [8-{3-[4-(pyridin-4-ylmethoxy)-phenyl]-propionyl}-1,3,8-triaza-spiro[4.5]dec-(2E)-ylidene]-amide], the IC50 was found to be 74 nM. Turning to `Nc1nc(N)c(C(=O)/N=C2/NC[C@@H](CCCc3ccc(OCC(=O)N4CCOCC4)cc3)N2)nc1Cl` [Example 23, 3,5-Diamino-6-chloro-pyrazine-2-carboxylic acid [(R)-4-{3-[4-(2-morpholin-4-yl-2-oxo-ethoxy)-phenyl]-propyl}-imidazolidin-(2Z)-ylidene]-amide], the half-inhibitory concentration (IC50) is 33.5 nM. Regarding `Nc1nc(N)c(C(=O)N=C2NC3CCCCC3N2)nc1Cl` (centres unmarked) [Example 11, 3,5-Diamino-6-chloro-pyrazine-2-carboxylic acid (octahydro-benzoimidazol-2-ylidene)-amide], the concentration for half-maximal inhibition (IC50) was 1690 nM. Consider `Cc1[nH]c2ccc(CC(=O)N3CCC4(CC3)CN/C(=N\C(=O)c3nc(Cl)c(N)nc3N)N4)cc2c1C` [Example 48, 3,5-Diamino-6-chloro-pyrazine-2-carboxylic acid [8-[2-(2,3-dimethyl-1H-indol-5-yl)-acetyl]-1,3,8-triaza-spiro[4.5]dec-(2E)-ylidene]-amide], for which the IC50 was 16.5 nM. As for `CC(c1ccccc1)N1CCC2(CC1)CN/C(=N\C(=O)c1nc(Cl)c(N)nc1N)N2` (centres unmarked) [Example 246, 3,5-Diamino-6-chloro-pyrazine-2-carboxylic acid [8-(1-phenyl-ethyl)-1,3,8-triaza-spiro[4.5]dec-(2E)-ylidene]-amide], the concentration for half-maximal inhibition (IC50) is 25 nM.

Take `Nc1nc(N)c(C(=O)/N=C2\NCC3(CCN(C(=O)[C@H]4CC[C@H](C(=O)N5CCC6(CC5)CN/C(=N\C(=O)c5nc(Cl)c(N)nc5N)N6)CC4)CC3)N2)nc1Cl` [Example 94]: the IC50 is 9 nM.

Consider `Nc1nc(N)c(C(=O)/N=C2\NCC3(CCN(C(=O)Cc4nnc(-c5ccccc5)[nH]4)CC3)N2)nc1Cl` [Example 42, 3,5-Diamino-6-chloro-pyrazine-2-carboxylic acid [8-[2-(5-phenyl-4H-[1,2,4]triazol-3-yl)-acetyl]-1,3,8-triaza-spiro[4.5]dec-(2E)-ylidene]-amide], for which the IC50 came out at 11 nM. For the compound `CCN(CC)C(=O)Cn1ccc2c(C(=O)N3CCC4(CC3)CN/C(=N\C(=O)c3nc(Cl)c(N)nc3N)N4)cccc21` [Example 91, 3,5-Diamino-6-chloro-pyrazine-2-carboxylic acid [8-(1-diethylcarbamoylmethyl-1H-indole-4-carbonyl)-1,3,8-triaza-spiro[4.5]dec-(2E)-ylidene]-amide], the 50% inhibitory concentration (IC50) is 88.5 nM. With `Nc1nc(N)c(C(=O)/N=C2\NCC3(CCN(C(=O)Cc4csc5ccccc45)CC3)N2)nc1Cl` [Example 44, 3,5-Diamino-6-chloro-pyrazine-2-carboxylic acid [8-(2-Benzo[b]thiophen-3-yl-acetyl)-1,3,8-triaza-spiro[4.5]dec-(2E)-ylidene]-Amide], the IC50 was 29.5 nM. `Nc1nc(N)c(C(=O)/N=C2\NCC3(CCN(C(=O)c4cocn4)CC3)N2)nc1Cl` [Example 118, 3,5-Diamino-6-chloro-pyrazine-2-carboxylic acid [8-(oxazole-4-carbonyl)-1,3,8-triaza-spiro[4.5]dec-(2E)-ylidene]-amide]: the IC50 came to 175 nM. On to `CC(C)(C)OC(=O)COc1ccc(CCC(=O)N2CCC3(CC2)CN/C(=N\C(=O)c2nc(Cl)c(N)nc2N)N3)cc1` [Example 71, [4-(3-{2-[(E)-3,5-Diamino-6-chloro-pyrazine-2-carbonylimino]-1,3,8-triaza-spiro[4.5]dec-8-yl}-3-oxo-propyl)-phenoxy]-acetic acid tert-butyl], for which the IC50 came to 42 nM. On to `Nc1nc(N)c(C(=O)/N=C2/NC[C@H](CCCCNC(=O)OCc3ccccc3)N2)nc1Cl` [Example 5, (4-{(S)-2-[(E)-3,5-Diamino-6-chloro-pyrazine-2-carbonylimino]-imidazolidin-4-yl}-butyl)-carbamic acid benzyl ester], for which the half-maximal inhibitory concentration (IC50) stood at 65 nM. Regarding `CC(=O)N[C@@H](Cc1ccc(OC(C)C)cc1)C(=O)N1CCC2(CC1)CN/C(=N\C(=O)c1nc(Cl)c(N)nc1N)N2` [Example 185, 3,5-Diamino-6-chloro-pyrazine-2-carboxylic acid [8-[(S)-2-acetylamino-3-(4-isopropoxy-phenyl)-propionyl]-1,3,8-triaza-spiro[4.5]dec-(2E)-ylidene]-amide], the IC50 stood at 62 nM.
